Results as given in US9518018B2, “3-alkoxy, thioalkyl and amino-4-amino-6-(substituted)picolinates and their use as herbicides” (Dow AgroSciences LLC, priority 2011, dated 2016).

Tested on: desired test plant species
Experiment: Foliar-applied postemergence herbicidal activity in direct seeded rice (Table 6)
Assay type: in vivo
Details: 21 DAA
From the text: Seeds or nutlets of the desired test plant species were planted in a soil matrix prepared by mixing a loam soil (43 percent silt, 19 percent clay, and 38 percent sand, with a pH of about 8.1 and an organic matter content of about 1.5 percent) and river sand in an 80 to 20 ratio. The soil matrix was contained in plastic pots with a surface area of 139.7 cm^2. When required to ensure good germination and healthy plants, a fungicide treatment and/or other chemical or physical treatment was applied. The plants were grown for 10-17 d in a greenhouse with an approximate 14-h photoperiod which was maintained at about 29° C. during the day and 26° C. during the night. Nutrients and water were added on a regular basis and supplemental lighting was provided with overhead metal halide 1000-Watt lamps as necessary. The plants were employed for testing when they reached the second or third true leaf stage. Treatments consisted of compounds 45, 34, and 66. Weighed amounts of technical compounds were placed in individual 25 mL glass vials and dissolved in 8 mL of 97:3 v/v acetone-DMSO to obtain stock solutions. […] The spray application solutions were prepared by removing 4 mL of the stock solution and diluting with 4 mL of 97:3 v/v acetone-DMSO and continued serial dilution to obtain 1⁄2×, 1⁄4×, 1⁄8×, and 1/16× rates of the high rate. Spray solutions were diluted to the appropriate final concentrations with the addition of 8 mL of an aqueous mixture of 1.875% (v/v) Agri-dex crop oil concentrate. The final 12-mL spray solutions each contained 1.25% (v/v) Agri-dex crop oil concentrate, 32.3% acetone, and 1.0% DMSO. Compound requirements are based upon a 12 mL application volume at a rate of 187 L/ha. Spray solutions were applied to the plant material with an overhead Mandel track sprayer equipped with […] nozzles calibrated to deliver 187 L/ha over an application area of 0.503 square meters (m^2) at a spray height of 18 inches ([…]) above average plant canopy height. Control plants were sprayed in the same manner with the solvent blank. The treated plants and control plants were placed in a greenhouse as described above and watered by sub-irrigation to prevent wash-off of the test compounds. After approximately 3 weeks, the condition of the test plants, compared with that of the untreated plants, was determined visually and scored on a scale of 0 to 100 percent where 0 corresponds to no injury and 100 corresponds to complete kill. By applying the well-accepted probit analysis as described by J. Berkson in Journal of the […], 48, 565 (1953) and by D. Finney in “Probit Analysis” Cambridge University Press (1952) or by plotting the mean data and fitting a logarithmic curve to the portion of the data where there was a dose response using Microsoft Excel®, the above data can be used to calculate GR50 and GR90 values, which are defined as growth reduction factors that correspond to the effective dose of herbicide required to kill or control 50 percent or 90 percent, respectively, of a target plant.

## COc1c(C(=O)OCc2ccccc2)nc(-c2ccc(Cl)c(OC)c2F)c(F)c1N [Compound 66, benzyl 4-amino-6-(4-chloro-2-fluoro-3-methoxyphenyl)-5-fluoro-3-methoxypicolinate]
ECHCO (Echinochloa colonum, junglerice), 4.38 g ae/ha
  Mean Visual Injury (%)-21 Days After Application ECHCO: 80%
ECHCO (Echinochloa colonum, junglerice), 8.75 g ae/ha
  Mean Visual Injury (%)-21 Days After Application ECHCO: 89%
ECHCO (Echinochloa colonum, junglerice), 17.5 g ae/ha
  Mean Visual Injury (%)-21 Days After Application ECHCO: 93%
ECHCO (Echinochloa colonum, junglerice), 35 g ae/ha
  Mean Visual Injury (%)-21 Days After Application ECHCO: 94%
ECHCO (Echinochloa colonum, junglerice), 70 g ae/ha
  Mean Visual Injury (%)-21 Days After Application ECHCO: 94%
ECHCO (Echinochloa colonum, junglerice), dose to kill or control 50 percent
  GR50 ECHCO: <2.19 g ae/ha
ECHCO (Echinochloa colonum, junglerice), dose to kill or control 90 percent
  GR90 ECHCO: 11.6 g ae/ha
LEFCH (Leptochloa chinensis, Chinese sprangletop), 2.19 g ae/ha
  Mean Visual Injury (%)-21 Days After Application LEFCH: 0%
LEFCH (Leptochloa chinensis, Chinese sprangletop), 4.38 g ae/ha
  Mean Visual Injury (%)-21 Days After Application LEFCH: 7%
LEFCH (Leptochloa chinensis, Chinese sprangletop), 8.75 g ae/ha
  Mean Visual Injury (%)-21 Days After Application LEFCH: 15%
LEFCH (Leptochloa chinensis, Chinese sprangletop), 17.5 g ae/ha
  Mean Visual Injury (%)-21 Days After Application LEFCH: 32%
LEFCH (Leptochloa chinensis, Chinese sprangletop), 35 g ae/ha
  Mean Visual Injury (%)-21 Days After Application LEFCH: 26%
LEFCH (Leptochloa chinensis, Chinese sprangletop), 70 g ae/ha
  Mean Visual Injury (%)-21 Days After Application LEFCH: 40%
LEFCH (Leptochloa chinensis, Chinese sprangletop), dose to kill or control 50 percent
  GR50 LEFCH: >70 g ae/ha
LEFCH (Leptochloa chinensis, Chinese sprangletop), dose to kill or control 90 percent
  GR90 LEFCH: >70 g ae/ha
ORYSA (Oryza sativa ‘Clearfield 171’, rice), 2.19 g ae/ha
  Mean Visual Injury (%)-21 Days After Application ORYSA ‘Clearfield 171’: 0%
ORYSA (Oryza sativa ‘Clearfield 171’, rice), 4.38 g ae/ha
  Mean Visual Injury (%)-21 Days After Application ORYSA ‘Clearfield 171’: 0%
ORYSA (Oryza sativa ‘Clearfield 171’, rice), 8.75 g ae/ha
  Mean Visual Injury (%)-21 Days After Application ORYSA ‘Clearfield 171’: 1%
ORYSA (Oryza sativa ‘Clearfield 171’, rice), 17.5 g ae/ha
  Mean Visual Injury (%)-21 Days After Application ORYSA ‘Clearfield 171’: 2%
ORYSA (Oryza sativa ‘Clearfield 171’, rice), 35 g ae/ha
  Mean Visual Injury (%)-21 Days After Application ORYSA ‘Clearfield 171’: 6%
ORYSA (Oryza sativa ‘Clearfield 171’, rice), 70 g ae/ha
  Mean Visual Injury (%)-21 Days After Application ORYSA ‘Clearfield 171’: 8%
ORYSA (Oryza sativa ‘Clearfield 171’, rice), dose to kill or control 50 percent
  GR50 ORYSA ‘Clearfield 171’: >70 g ae/ha
ORYSA (Oryza sativa ‘Clearfield 171’, rice), dose to kill or control 90 percent
  GR90 ORYSA ‘Clearfield 171’: >70 g ae/ha
ORYSA (Oryza sativa ‘Wells’, rice), 2.19 g ae/ha
  Mean Visual Injury (%)-21 Days After Application ORYSA ‘Wells’: 0%
ORYSA (Oryza sativa ‘Wells’, rice), 4.38 g ae/ha
  Mean Visual Injury (%)-21 Days After Application ORYSA ‘Wells’: 0%
ORYSA (Oryza sativa ‘Wells’, rice), 8.75 g ae/ha
  Mean Visual Injury (%)-21 Days After Application ORYSA ‘Wells’: 0%
ORYSA (Oryza sativa ‘Wells’, rice), 17.5 g ae/ha
  Mean Visual Injury (%)-21 Days After Application ORYSA ‘Wells’: 2%
ORYSA (Oryza sativa ‘Wells’, rice), 35 g ae/ha
  Mean Visual Injury (%)-21 Days After Application ORYSA ‘Wells’: 0%
ORYSA (Oryza sativa ‘Wells’, rice), 70 g ae/ha
  Mean Visual Injury (%)-21 Days After Application ORYSA ‘Wells’: 0%
ORYSA (Oryza sativa ‘Wells’, rice), dose to kill or control 50 percent
  GR50 ORYSA ‘Wells’: >70 g ae/ha
ORYSA (Oryza sativa ‘Wells’, rice), dose to kill or control 90 percent
  GR90 ORYSA ‘Wells’: >70 g ae/ha
SCPJU (Scirpus juncoides, Japanese bulrush), 2.19 g ae/ha
  Mean Visual Injury (%)-21 Days After Application SCPJU: 100%
SCPJU (Scirpus juncoides, Japanese bulrush), 4.38 g ae/ha
  Mean Visual Injury (%)-21 Days After Application SCPJU: 88%
SCPJU (Scirpus juncoides, Japanese bulrush), 8.75 g ae/ha
  Mean Visual Injury (%)-21 Days After Application SCPJU: 100%
SCPJU (Scirpus juncoides, Japanese bulrush), 17.5 g ae/ha
  Mean Visual Injury (%)-21 Days After Application SCPJU: 100%
SCPJU (Scirpus juncoides, Japanese bulrush), 35 g ae/ha
  Mean Visual Injury (%)-21 Days After Application SCPJU: 100%
SCPJU (Scirpus juncoides, Japanese bulrush), 70 g ae/ha
  Mean Visual Injury (%)-21 Days After Application SCPJU: 100%
SCPJU (Scirpus juncoides, Japanese bulrush), dose to kill or control 50 percent
  GR50 SCPJU: <42.19 g ae/ha
SCPJU (Scirpus juncoides, Japanese bulrush), dose to kill or control 90 percent
  GR90 SCPJU: 4.9 g ae/ha
SEBEX (Sesbania exaltata, hemp sesbania), 2.19 g ae/ha
  Mean Visual Injury (%)-21 Days After Application SEBEX: 53%
SEBEX (Sesbania exaltata, hemp sesbania), 4.38 g ae/ha
  Mean Visual Injury (%)-21 Days After Application SEBEX: 90%
SEBEX (Sesbania exaltata, hemp sesbania), 8.75 g ae/ha
  Mean Visual Injury (%)-21 Days After Application SEBEX: 99%
SEBEX (Sesbania exaltata, hemp sesbania), 17.5 g ae/ha
  Mean Visual Injury (%)-21 Days After Application SEBEX: 99%
SEBEX (Sesbania exaltata, hemp sesbania), 35 g ae/ha
  Mean Visual Injury (%)-21 Days After Application SEBEX: 100%
SEBEX (Sesbania exaltata, hemp sesbania), 70 g ae/ha
  Mean Visual Injury (%)-21 Days After Application SEBEX: 100%
SEBEX (Sesbania exaltata, hemp sesbania), dose to kill or control 50 percent
  GR50 SEBEX: <2.19 g ae/ha
SEBEX (Sesbania exaltata, hemp sesbania), dose to kill or control 90 percent
  GR90 SEBEX: 5.8 g ae/ha
